In patent US20240076293A1, “Compositions and Methods for Inhibiting Fibrosis, Inflammation and Cancer” (Georgia Tech Research Corporation, priority 2020, published 2024):
Structures can show the parent of a compound that is named as a salt. Where two headings read alike, the source gives them in different places.

Columns and labels:
Format in all cases: cell-based
[1] = Anti-proliferation IC50, MRC-5; settings: human, MRC-5 cells; Table 1, compounds of formula I; NI = no inhibition up to 500 μM
[2] = test system: VERO; assay: Anti-proliferation IC50, VERO; settings: Chlorocebus sabaeus
[3] = test system: MDA-MB-231; assay: Anti-proliferation IC50, MDA-MB-231; settings: Homo sapiens
[4] = test system: A549; assay: Anti-proliferation IC50, A549; settings: Homo sapiens
[5] = test system: MCF-7; assay: Anti-proliferation IC50, MCF-7; settings: Homo sapiens, MCF7
[6] = test system: Hep-G2; assay: Anti-proliferation IC50, Hep-G2; settings: Homo sapiens, HepG2
[7] = test system: MRC-5; assay: Anti-proliferation IC50, MRC-5; settings: Homo sapiens, MRC5; Table 2, compounds of formula II
[8] = Table 1, compounds of formula I, NI = no inhibition up to 500 μM, read-out: VERO (IC50)
[9] = Table 1, compounds of formula I, NI = no inhibition up to 500 μM, read-out: MDA-MB-231 (IC50)
[10] = Table 1, compounds of formula I, NI = no inhibition up to 500 μM, read-out: A549 (IC50)
[11] = Table 1, compounds of formula I, NI = no inhibition up to 500 μM, read-out: MCF-7 (IC50)
[12] = Table 1, compounds of formula I, NI = no inhibition up to 500 μM, read-out: Hep-G2 (IC50)
[13] = Table 2, compounds of formula II, read-out: Anti-proliferation IC50 VERO
[14] = Table 2, compounds of formula II, read-out: Anti-proliferation IC50 MDA-MB-231
[15] = Table 2, compounds of formula II, read-out: Anti-proliferation IC50 A549
[16] = Table 2, compounds of formula II, read-out: Anti-proliferation IC50 MCF-7
[17] = Table 2, compounds of formula II, read-out: Anti-proliferation IC50 Hep-G2

| SMILES | IC50 [1] [µM] | IC50 [2, 8] [µM] | IC50 [3, 9] [µM] | IC50 [4, 10] [µM] | IC50 [5, 11] [µM] | IC50 [6, 12] [µM] | IC50 [7] [µM] | IC50 [2, 13] [µM] | IC50 [3, 14] [µM] | IC50 [4, 15] [µM] | IC50 [5, 16] [µM] | IC50 [6, 17] [µM] |
| --- | --- | --- | --- | --- | --- | --- | --- | --- | --- | --- | --- | --- |
| CC[C@H]1OC(=O)[C@@H](C)[C@@H](O[C@H]2C[C@@](C)(OC)[C@@H](O)[C@H](C)O2)[C@@H](C)[C@@H](O[C@H]2O[C@@H](C)C[C@@H](N(C)Cc3ccc(-c4cn(CCNC(=O)CCCC[C@H]5CCSS5)nn4)cc3)[C@@H]2O)[C@](C)(OC)C[C@@H](C)C(=O)[C@H](C)[C@H](O)[C@]1(C)O | 56.1 ± 1.2 | 65 ± 12.2 | 56.9 ± 1.3 | 58.6 ± 0.6 | 42.3 ± 4.4 | 57.3 ± 1.2 | – | – | – | – | – | – |
| CC[C@H]1OC(=O)[C@@H](C)[C@@H](O[C@H]2C[C@@](C)(OC)[C@@H](O)[C@H](C)O2)[C@@H](C)[C@@H](O[C@H]2O[C@@H](C)C[C@@H](N(C)Cc3ccc(-c4cn(CCCNC(=O)CCCC[C@H]5CCSS5)nn4)cc3)[C@@H]2O)[C@](C)(OC)C[C@@H](C)C(=O)[C@H](C)[C@H](O)[C@]1(C)O | 51.6 ± 5 | 58.1 ± 2.7 | 58.5 ± 3.2 | 56.9 ± 0.8 | 53.6 ± 0.2 | 49.2 ± 1.8 | – | – | – | – | – | – |
| CC[C@H]1OC(=O)[C@@H](C)[C@@H](O[C@H]2C[C@@](C)(OC)[C@@H](O)[C@H](C)O2)[C@@H](C)[C@@H](O[C@H]2O[C@@H](C)C[C@@H](N(C)C)[C@@H]2OC(=O)/C=C/C(=O)OC)[C@](C)(OC)C[C@@H](C)C(=O)[C@H](C)[C@H](O)[C@]1(C)O | 88.4 | 219 ± 45.8 | 140 | 278 | 128 ± 16.5 | 133 | – | – | – | – | – | – |
| CCCCOC(=O)/C=C/C(=O)N(C)[C@@H]1C[C@H](C)O[C@H](O[C@@H]2[C@H](C)[C@H](O[C@H]3C[C@@](C)(OC)[C@@H](O)[C@H](C)O3)[C@H](C)C(=O)O[C@H](CC)[C@@](C)(O)[C@@H](O)[C@@H](C)C(=O)[C@H](C)C[C@@]2(C)OC)[C@H]1O | 44.9 ± 0.6 | 68.3 ± 16.8 | 28.4 ± 3.9 | > 500 | 72.3 ± 5.2 | 209 ± 11.2 | – | – | – | – | – | – |
| CC[C@@H]1OC(=O)[C@@H](C)[C@H](O[C@H]2C[C@@](C)(OC)[C@@H](O)[C@H](C)O2)[C@@H](C)[C@H](O[C@@H]2O[C@H](C)C[C@H](N(C)C)[C@H]2OC(=O)CCCC[C@H]2CCSS2)C(C)(O)C[C@H](C)CN(C)[C@@H](C)[C@H](O)[C@@]1(C)O (stereo partly drawn) | – | – | – | – | – | – | 13.4 ± 0.4 | 54.5 ± 0.8 | 45 ± 1.3 | 23 ± 0.5 | 38.2 ± 0.8 | 29.5 ± 4.4 |
| CC[C@H]1OC(=O)[C@H](C)[C@@H](O[C@H]2C[C@@](C)(OC)[C@@H](O)[C@H](C)O2)[C@H](C)[C@@H](O[C@@H]2O[C@H](C)C[C@H](N(C)C(=O)CCCC[C@H]3CCSS3)[C@H]2O)[C@](C)(O)C[C@@H](C)CN(C)[C@H](C)[C@@H](O)[C@]1(C)O | – | – | – | – | – | – | 20.2 ± 3.7 | 24.4 ± 2.4 | 11.9 ± 1.7 | 18.8 ± 4.1 | 11.2 | 13.6 ± 0.1 |
| CC[C@@H]1OC(=O)[C@@H](C)[C@H](O[C@H]2C[C@@](C)(OC)[C@@H](O)[C@H](C)O2)[C@@H](C)[C@H](O[C@H]2O[C@@H](C)C[C@@H](N(C)Cc3ccc(-c4cn(CCNC(=O)CCCC[C@H]5CCSS5)nn4)cc3)[C@@H]2O)C(C)(O)C[C@H](C)CN(C)[C@@H](C)[C@H](O)[C@@]1(C)O (stereo partly drawn) | – | – | – | – | – | – | 6.1 | 16.9 ± 0.4 | 11.8 ± 0.1 | 10.3 ± 0.9 | 11.7 ± 0.4 | 8.5 ± 1.1 |
| CC[C@@H]1OC(=O)[C@@H](C)[C@H](OC2C[C@@](C)(OC)[C@@H](O)[C@H](C)O2)[C@@H](C)[C@H](O[C@H]2O[C@@H](C)C[C@@H](N(C)Cc3ccc(-c4cn(CCCNC(=O)CCCC[C@H]5CCSS5)nn4)cc3)[C@@H]2O)C(C)(O)C[C@H](C)CN(C)[C@@H](C)[C@H](O)[C@@]1(C)O (stereo partly drawn) | – | – | – | – | – | – | 24.5 ± 2.6 | 40.3 ± 4.9 | 21.3 ± 1.5 | 26.9 | 26.8 ± 7.1 | 14.4 ± 0.6 |
| CC[C@@H]1OC(=O)[C@@H](C)[C@H](O[C@H]2C[C@@](C)(OC)[C@@H](O)[C@H](C)O2)[C@@H](C)[C@H](O[C@H]2O[C@@H](C)C[C@@H](N(C)C)[C@@H]2OC(=O)/C=C/C(=O)OC)C(C)(O)C[C@H](C)CN(C)[C@@H](C)[C@H](O)[C@@]1(C)O (stereo partly drawn) | – | – | – | – | – | – | 68.3 | 238 ± 29.1 | 118 | 284 | 278 | 118 |
| CCCCOC(=O)/C=C/C(=O)O[C@@H]1[C@@H](O[C@H]2[C@H](C)[C@@H](O[C@H]3C[C@@](C)(OC)[C@@H](O)[C@H](C)O3)[C@H](C)C(=O)O[C@@H](CC)[C@](C)(O)[C@@H](O)[C@H](C)N(C)C[C@@H](C)CC2(C)O)O[C@@H](C)C[C@H]1N(C)C (stereo partly drawn) | – | – | – | – | – | – | 43.6 ± 8.5 | 126 ± 2.4 | 29.6 ± 3 | 141 ± 4.3 | 50 ± 1.5 | 63.6 ± 7.7 |
| CCCCOC(=O)/C=C/C(=O)N(C)[C@@H]1C[C@H](C)O[C@H](O[C@H]2[C@H](C)[C@@H](O[C@H]3C[C@@](C)(OC)[C@@H](O)[C@H](C)O3)[C@H](C)C(=O)O[C@@H](CC)[C@](C)(O)[C@@H](O)[C@H](C)N(C)C[C@@H](C)CC2(C)O)[C@H]1O (stereo partly drawn) | – | – | – | – | – | – | 78.9 ± 2.6 | 97.2 ± 15.5 | 34.8 ± 2.8 | 111 ± 4.6 | 39.3 ± 7.1 | 64.9 ± 2.4 |
| COC(=O)/C=C/C(=O)OC [Dimethyl Fumarate, reference compound] | 259 | 844 | > 500 | > 500 | > 500 | > 500 | – | – | – | – | – | – |
| O=C(O)CCCCC1CCSS1 (stereo not drawn) [Lipoic acid (ALA), Lipoic acid, reference compound] | > 500 | > 500 | > 500 | > 500 | > 500 | > 500 | – | – | – | – | – | – |
